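Following 48 hours of exposure in 96-well plates, responses at five concentrations were used to interpolate endpoints linearly. Abbreviation: GI50, concentration required for 50% inhibition of growth.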 Activity calls are given as the source filed them. Cut-off read from the data, not from the text of the source: active = GI50 up to about 1.1 µM and inactive = higher.
Columns and labels:
Test in all cases: growth of human tumour cells (NCI), 48 h
CAKI-1 = tested on: CAKI-1
HT-29 = tested on: HT-29
Hs-578T = tested on: Hs-578T
M14 = tested on: M14
MCF7 = tested on: MCF7
MDA-N = tested on: MDA-N
NCI-H23 = tested on: NCI-H23
NCI/ADR-RES = tested on: NCI/ADR-RES
RXF 393 = tested on: RXF 393
SK-MEL-28 = tested on: SK-MEL-28
SN12C = tested on: SN12C
T47D = tested on: T47D
TK-10 = tested on: TK-10
HOP-62 = tested on: HOP-62
MDA-MB-435 = tested on: MDA-MB-435
NCI-H522 = tested on: NCI-H522

Compound	GI50 (CAKI-1)	GI50 (HT-29)	GI50 (Hs-578T)	GI50 (M14)	GI50 (MCF7)	GI50 (MDA-N)	GI50 (NCI-H23)	GI50 (NCI/ADR-RES)	GI50 (RXF 393)	GI50 (SK-MEL-28)	GI50 (SN12C)	GI50 (T47D)	GI50 (TK-10)	GI50 (HOP-62)	GI50 (MDA-MB-435)	GI50 (NCI-H522)
CC1C2(C)OC(=N)C(C#N)(C(C)O2)C1(C#N)C#N (stereo unspecified)	13.6 µM (inactive)	28.2 µM (inactive)	29.4 µM (inactive)	18.3 µM (inactive)	24.8 µM (inactive)	18.6 µM (inactive)	28.8 µM (inactive)	77.1 µM (inactive)	18.2 µM (inactive)	27.4 µM (inactive)	16.3 µM (inactive)	30.1 µM (inactive)	36.8 µM (inactive)			
COC(=O)c1ccc2c(c1)S/C(=C/c1ccc3ccc4cccc5ccc1c3c45)S2	40.1 µM (inactive)	> 100 µM (inactive)	37.9 µM (inactive)	32.1 µM (inactive)	33.3 µM (inactive)	52.5 µM (inactive)	19 µM (inactive)	23.7 µM (inactive)	50.4 µM (inactive)		> 100 µM (inactive)	> 100 µM (inactive)	98.4 µM (inactive)	37.1 µM (inactive)	26.6 µM (inactive)	21 µM (inactive)
C1OCN2c3nonc3N3COCN4c5nonc5N1C2C43 (stereo unspecified)	> 100 µM (inactive)	31.1 µM (inactive)	> 100 µM (inactive)	> 100 µM (inactive)	49.1 µM (inactive)	62.8 µM (inactive)	> 100 µM (inactive)	> 100 µM (inactive)	> 100 µM (inactive)	> 100 µM (inactive)	> 100 µM (inactive)	> 100 µM (inactive)	> 100 µM (inactive)		> 100 µM (inactive)	> 100 µM (inactive)
O=[N+]([O-])c1ccc(N/N=C(\c2ccccc2)c2ccccn2)nc1	0.497 µM (active)	0.0253 µM (active)	4.29 µM (inactive)	0.182 µM (active)	< 0.0492 µM (active)	20 µM (inactive)	0.845 µM (active)	0.658 µM (active)	5.56 µM (inactive)	9.14 µM (inactive)	0.429 µM (active)	0.0107 µM (active)		8.57 µM (inactive)	7.41 µM (inactive)	0.0794 µM (active)
COc1ccc(/C=C2/CCS(=O)(=O)c3ccc(C)cc3C2=O)cc1OC	17.2 µM (inactive)	13.9 µM (inactive)	11.5 µM (inactive)	17.2 µM (inactive)	8.38 µM (inactive)	11.9 µM (inactive)	12.5 µM (inactive)	11.8 µM (inactive)	12.9 µM (inactive)	17.2 µM (inactive)	13.2 µM (inactive)	13.2 µM (inactive)	13.6 µM (inactive)	28.9 µM (inactive)	12.5 µM (inactive)	
COc1ccc(/C=C/NC=O)cc1		> 100 µM (inactive)	> 100 µM (inactive)	> 100 µM (inactive)	> 100 µM (inactive)	> 100 µM (inactive)	> 100 µM (inactive)	> 100 µM (inactive)	> 100 µM (inactive)	> 100 µM (inactive)	> 100 µM (inactive)	> 100 µM (inactive)	> 100 µM (inactive)	> 100 µM (inactive)	> 100 µM (inactive)	> 100 µM (inactive)
Oc1c(N2CCCCC2)cc(-c2cc(N3CCCCC3)c(O)c3ccccc23)c2ccccc12	> 100 µM (inactive)	23 µM (inactive)	27.7 µM (inactive)	16.7 µM (inactive)	22.9 µM (inactive)	17 µM (inactive)	24.9 µM (inactive)	34.2 µM (inactive)	20.4 µM (inactive)	19.9 µM (inactive)	27.6 µM (inactive)	32.4 µM (inactive)	> 100 µM (inactive)	32.1 µM (inactive)	4.24 µM (inactive)	
NNC(=O)c1ccccc1NC(=O)/C(=C/c1ccccc1)NC(=O)c1ccccc1	> 100 µM (inactive)	> 100 µM (inactive)	54.1 µM (inactive)	81.1 µM (inactive)	> 100 µM (inactive)	72.4 µM (inactive)	> 100 µM (inactive)	56.8 µM (inactive)	> 100 µM (inactive)	> 100 µM (inactive)	> 100 µM (inactive)	> 100 µM (inactive)	> 100 µM (inactive)	49.1 µM (inactive)	54.3 µM (inactive)	> 100 µM (inactive)
COc1c(C)c(OC)c2c(c1O)[C@@H]1[C@@H]3Cc4c(OC)c(C)c(OC)c(O)c4[C@H](CNC(=O)c4ccc5ccccc5n4)N3[C@@H](C#N)[C@H](C2)N1C	0.00401 µM (active)	0.000893 µM (active)	0.00124 µM (active)	0.000659 µM (active)	0.000424 µM (active)	0.000807 µM (active)	0.000459 µM (active)	0.0101 µM (active)	0.00136 µM (active)	0.00251 µM (active)	0.00103 µM (active)	0.000277 µM (active)	0.000444 µM (active)	0.00112 µM (active)	0.00116 µM (active)	0.000144 µM (active)
CNC(=S)Nc1ccc(OC)c2ccccc12	> 10 µM (inactive)	> 10 µM (inactive)	> 10 µM (inactive)	> 10 µM (inactive)	> 10 µM (inactive)	> 10 µM (inactive)	> 10 µM (inactive)	> 10 µM (inactive)		> 10 µM (inactive)	> 10 µM (inactive)	> 10 µM (inactive)	> 10 µM (inactive)	> 10 µM (inactive)	> 10 µM (inactive)	> 10 µM (inactive)
O=C1CCCC/C1=C\c1ccc(Br)cc1	17 µM (inactive)		24.5 µM (inactive)	12.4 µM (inactive)	2.71 µM (inactive)	16.3 µM (inactive)	16.2 µM (inactive)	3.73 µM (inactive)		13.7 µM (inactive)	17.6 µM (inactive)	23.3 µM (inactive)	16.7 µM (inactive)	20.7 µM (inactive)	15.8 µM (inactive)	14.8 µM (inactive)
Cc1ccc(/C=C2\CCCC(CN3CCCCC3)C2=O)cc1 (stereo unspecified)	1.79 µM (inactive)	1.77 µM (inactive)	2.13 µM (inactive)		0.721 µM (active)	2.77 µM (inactive)	2.17 µM (inactive)	5.38 µM (inactive)	1.56 µM (inactive)	1.63 µM (inactive)	2.96 µM (inactive)	1.82 µM (inactive)	3.22 µM (inactive)	20.3 µM (inactive)	1.82 µM (inactive)	1.79 µM (inactive)
Cc1cccc(-n2c(C)nc3ccc(NC4OC(CO)C(O)C(O)C4O)cc3c2=O)c1 (stereo unspecified)	> 100 µM (inactive)	> 100 µM (inactive)	> 100 µM (inactive)		> 100 µM (inactive)	> 100 µM (inactive)	> 100 µM (inactive)	> 100 µM (inactive)	> 100 µM (inactive)	> 100 µM (inactive)	> 100 µM (inactive)	> 100 µM (inactive)	> 100 µM (inactive)	> 100 µM (inactive)	> 100 µM (inactive)	> 100 µM (inactive)
O=C1C=C(OCCCCl)C(=O)c2c(O)ccc(O)c21	1.85 µM (inactive)	0.581 µM (active)	2.42 µM (inactive)	0.188 µM (active)	0.195 µM (active)	0.184 µM (active)	0.237 µM (active)	2.65 µM (inactive)	1.69 µM (inactive)	0.843 µM (active)	0.35 µM (active)	2.19 µM (inactive)	1.81 µM (inactive)	1.42 µM (inactive)	0.206 µM (active)	2.36 µM (inactive)
COC(=O)[C@H](Cc1c[nH]c2ccccc12)NC(=O)OCC1OC(n2cc(C)c(=O)[nH]c2=O)CC1N=[N+]=[N-] (stereo partly specified)	> 100 µM (inactive)	> 100 µM (inactive)	46.3 µM (inactive)	> 100 µM (inactive)	> 100 µM (inactive)	> 100 µM (inactive)	76 µM (inactive)	> 100 µM (inactive)	> 100 µM (inactive)		> 100 µM (inactive)	> 100 µM (inactive)	> 100 µM (inactive)	> 100 µM (inactive)	> 100 µM (inactive)	> 100 µM (inactive)
COc1cccc(-c2ccc3c4c2O[C@H]2c5[nH]c6ccccc6c5C[C@@]5(O)[C@@H](C3)N(CC3CC3)CC[C@]425)c1	2.1 µM (inactive)	1.7 µM (inactive)	1.49 µM (inactive)	1.81 µM (inactive)	1.69 µM (inactive)	1.85 µM (inactive)	2.21 µM (inactive)	2.07 µM (inactive)	1.66 µM (inactive)		1.67 µM (inactive)	2.1 µM (inactive)	1.72 µM (inactive)	1.74 µM (inactive)	1.77 µM (inactive)	1.15 µM (inactive)
O=S(=O)(O)c1cccc2c(/N=N/c3c(O)ccc4ccccc34)cccc12	> 100 µM (inactive)	> 100 µM (inactive)	> 100 µM (inactive)	> 100 µM (inactive)		> 100 µM (inactive)	> 100 µM (inactive)	> 100 µM (inactive)	> 100 µM (inactive)	> 100 µM (inactive)	> 100 µM (inactive)	> 100 µM (inactive)	> 100 µM (inactive)	> 100 µM (inactive)	> 100 µM (inactive)	> 100 µM (inactive)
c1ccc(-c2nc(-c3ccccc3)c(-c3ccccc3)[nH]2)cc1	> 100 µM (inactive)	> 94.6 µM (inactive)	23.9 µM (inactive)	> 100 µM (inactive)	70.3 µM (inactive)	> 88.7 µM (inactive)	> 100 µM (inactive)	60.3 µM (inactive)	> 100 µM (inactive)	> 100 µM (inactive)	> 87.5 µM (inactive)	42.3 µM (inactive)	> 100 µM (inactive)	> 85.5 µM (inactive)	> 100 µM (inactive)	> 82.6 µM (inactive)

From ChEMBL document CHEMBL1201862, “PubChem BioAssay data set” (2004)
